# Assay results from article PMC11984924, “Dipeptidic Phosphonates: Potent Inhibitors of Pseudomonas aeruginosa Elastase B Showing Efficacy in a Murine Keratitis Model” (Advanced Science, 2025).
# What was measured:
# [1] = system: P. aeruginosa strain PA54 keratitis; assay: Murine Pseudomonas keratitis model; format: in vivo, mouse
# Experimental: Based on our previous findings on target engagement in a murine pneumonia model in combination with a standard‐of‐care antibiotic,^[ [30] ^] we applied the dipeptide (R)‐30 alone and in combination with the commonly used antibiotic meropenem.^[ [9] ^] The keratitis model was carried out using aged female C57BL/6 mice, as previously published.^[ [37] ^] For infection, 5*10^7 colony forming units (CFUs) of PA54 were topically administered on denuded, mechanically harmed corneas. Treatments with meropenem, (R)‐30, or meropenem in combination with (R)‐30 were performed every 8 h for 72 h (first treatment at 6 h post infection). Each of the in total nine 5 µL‐doses contained 1 mg/mL (R)‐30 and/or 0.5 mg mL^−1 meropenem. Sham‐treated mice received 5 µL‐doses of the vehicle (0.9% saline and 1% DMSO) at the time points indicated above, and uninfected eyes received no treatment. […]
# (§1) Animals: The animal experiments were approved by Saarland University’s Animal Welfare Committee (Application number: 17/2021) and conducted in accordance with German and European recommendations and guidelines for the ethical use of animals. The laboratory animals were all C57BL/6N female eight to eleven months old mice. Keeping in specific pathogen-free conditions was provided. Unlimited access to water and show was secured.
# (§2) Temperature was closely maintained around 22 °C and relative air humidity around 50%. Light and darkness alternated at twelve-hour intervals. All laboratory animals were purchased from Charles River GmbH, Sulzfeld, Germany.
# P. aeruginosa: The P. aeruginosa strain PA54 was employed to induce an experimental bacterial keratitis in the aforementioned C57BL/6N mice. The strain PA54 was isolated from human infections and collected at Saarland University Medical Center’s Institute for Medical Microbiology and Hygienics (IMMH) in 2009. According to Magiorakos et al., PA54 can be classified as multidrug-resistant due to its lacking sensibility to the anti-pseudomonal cephalosporins ceftazidime and cefepime, the anti-pseudomonal fluoroquinolones ciprofloxacin and levofloxacin, the […] fosfomycin, and the aminoglycoside gentamicin.[18] The minimum inhibitory concentration (MIC) of the reserve antibiotic meropenem (meropenem trihydrate, Sigma) was 1 µg/mL (sensitivity limit = 2 µg/mL). The exoU- and exoT-positivity of the PA54 strain, foregrounds its keratitogenic potential.
# Inoculum: The P. aeruginosa strain PA54 is routinely grown overnight on blood agar (TrypticaseTM Soy Agar, 5% sheep blood, BD, Heidelberg, Germany) at 37 °C. To obtain a stationary phase cell inoculum, a freshly grown colony was inoculated in tryptic soy broth (TSB; BD, Heidelberg, Germany) and cultured at 37 °C and 150 rounds per minute (rpm) for 16 h.
# Then, 2 mL were centrifuged at 13,200 rpm at rt for 2 min, whereupon cells were resuspended in spent medium to an OD600 of 10 (∼1×1010 CFU/mL). Short storage on ice followed, before the infection procedure started.
# Infection Procedure: Anesthesia and infection were performed as previously published. Briefly, fentanyl (Hameln Pharma Plus GmbH, Hameln, Germany), midazolam hydrochloride (Midazolam-Hameln, 5 mg/mL, Hameln pharma GmbH, Germany) and medetomidine hydrochloride (Domitor, Orion Corporation, Espoo, Finland) were dissolved in 0.9% NaCl (NaCl 0.9%, Ecotainer 500 mL, B. Braun, Melsungen, Germany), dosed at 0.05 mg/kg, 5 mg/kg and 0.5 mg/kg body weight, respectively, and applied by intraperitoneal injection. Analgesia (Carprofen, 5 mg/kg body weight, Zoetis Deutschland GmbH, Berlin, Germany) was ap plied subcutaneously. Lacrimation was stopped with 10 µL of a 0.6% acetylcysteine solution (Pharmacy of Saarland University Hospitals, Homburg, Germany). Local analgesia (0.5% proxymetacaine hydrochloride, Proparakain -POS Augentropfen, Ursapharm Arzneimitt el GmbH, Saarbrücken, Germany) was eye-dropped and removed after 60 seconds. The blunt […]
# [2] = system: P. aeruginosa strain PA54; assay: MIC against strain PA54; format: cell-based; settings: Pseudomonas aeruginosa, read-out: minimum inhibitory concentration (MIC)
# Experimental: The analysis of fold change and copy numbers was conducted through Microsoft Excel, and the data were graphically represented using GraphPad Prism 9.
# Table S17: Primers and probes applied in this study (designs were carried out using Geneious Prime bioinformatics […]
# Gene Forward primer Reverse Primer Probe Description […]
# lasB GAACA CAG CCAA aeruginosa […]
# GACTTC CCTG CCGA sigma factor RpoS […]
# rho AAC GTTG TCATCGG termination factor
# as §1, §2
# P. aeruginosa: The P. aeruginosa strain PA54 was employed to induce an experimental bacterial keratitis in the aforementioned C57BL/6N mice. The strain PA54 was isolated from human infections and collected at Saarland University Medical Center’s Institute for Medical Microbiology and Hygienics (IMMH) in 2009. […]
smiles,measurement,setting,value
"C[C@@H](O)[C@H]1C(=O)N2C(C(=O)O)=C(S[C@@H]3CN[C@H](C(=O)N(C)C)C3)[C@H](C)[C@H]12 [meropenem, reference compound]",IL‐1β levels in eye homogenate,"[1]; day 3 post infection, compared to sham treatment / uninfected eyes",almost on the level of this cytokine seen in uninfected eyes
same,KC levels in eye homogenate,"[1]; day 3 post infection, compared to uninfected eyes",significantly higher amounts of this chemokine
same,reduction of bacterial load in the eye (median),"[1]; day 3 post infection, whole-eye homogenates",64 fold
same,median clinical keratitis score,"[1]; day three post infection, topical every 8 h for 72 h, 1 mg/mL (R)-30 and/or 0.5 mg/mL meropenem",3
same,MIC,[2],1 µg/mL
